Experimental data reported in BindingDB's records for doi:10.1016/j.chembiol.2006.06.007 (University of Wisconsin-Madison, 2006).

Tests used:
Test in all cases: High-throughput FP Assay
[1] = target: T1, UDP-galactopyranose mutase (Mycobacterium tuberculosis (strain ATCC 25618 / H37Rv), UniProt P9WIQ1)
[2] = target: T2, UDP-galactopyranose mutase (Klebsiella pneumoniae, UniProt Q762K7)
[3] = target: T1, UDP-galactopyranose mutase; remark: listed apart in the source
Description: (§1) To access the ability of compounds to inhibit the catalytic activity of UGM, an HPLC assay was employed. Inhibition constants were determined by monitoring UGM activity at a single substrate concentration while varying inhibitor concentration.

[4] = target: T2, UDP-galactopyranose mutase; remark: listed apart in the source
Description: as §1

T2 sequence (Q762K7 whole entry): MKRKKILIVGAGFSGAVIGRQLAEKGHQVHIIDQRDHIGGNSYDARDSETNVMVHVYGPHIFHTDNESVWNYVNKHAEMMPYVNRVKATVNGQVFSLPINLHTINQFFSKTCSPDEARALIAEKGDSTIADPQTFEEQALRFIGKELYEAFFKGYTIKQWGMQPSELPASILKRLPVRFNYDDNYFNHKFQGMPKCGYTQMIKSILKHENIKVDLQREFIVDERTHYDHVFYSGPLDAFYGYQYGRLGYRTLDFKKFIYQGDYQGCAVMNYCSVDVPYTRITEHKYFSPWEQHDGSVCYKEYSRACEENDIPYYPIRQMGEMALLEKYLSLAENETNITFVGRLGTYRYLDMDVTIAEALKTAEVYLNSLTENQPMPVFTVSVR
T1 sequence (P9WIQ1 whole entry): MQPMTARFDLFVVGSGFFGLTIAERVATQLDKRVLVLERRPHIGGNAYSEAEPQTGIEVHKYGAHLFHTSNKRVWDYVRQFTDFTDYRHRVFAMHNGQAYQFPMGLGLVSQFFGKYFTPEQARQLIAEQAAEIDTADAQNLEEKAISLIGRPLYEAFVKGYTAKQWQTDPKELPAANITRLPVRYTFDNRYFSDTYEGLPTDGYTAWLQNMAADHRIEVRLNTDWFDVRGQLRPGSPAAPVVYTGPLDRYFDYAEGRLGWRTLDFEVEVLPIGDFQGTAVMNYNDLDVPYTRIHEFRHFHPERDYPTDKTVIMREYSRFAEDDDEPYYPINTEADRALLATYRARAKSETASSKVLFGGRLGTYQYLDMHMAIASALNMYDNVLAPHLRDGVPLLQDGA

SMILES: O=C(O)C(Cc1ccccc1)N1C(=O)/C(=C\c2ccccc2)SC1=S (stereo unspecified) [Thiazolidinone core, 29]
- Kd [1]: > 33 µM
- Kd [2]: > 33 µM

SMILES: O=C(O)c1cc(NC(=S)NCCCCCCOP(=O)(O)OP(=O)(O)OCC2OC(n3ccc(=O)[nH]c3=O)C(O)C2O)ccc1-c1c2ccc(=O)cc-2oc2cc(O)ccc12 (stereo unspecified) [Fluorescent Probe 1]
- IC50 [3]: 5.7 µM
- Kd [1]: 0.16 µM
- Kd [2]: 0.1 µM

SMILES: O=C(O)C(Cc1ccccc1)N1C(=O)/C(=C\c2cccc(F)c2)SC1=S (stereo unspecified) [Thiazolidinone core, 23]
- Kd [1]: > 33 µM
- Kd [2]: > 33 µM

SMILES: O=C(O)N1C(=O)/C(=C\c2ccccc2)SC1=S [Thiazolidinone core, 31]
- Kd [1]: > 330 µM
- Kd [2]: > 33 µM

SMILES: O=C(O)C(Cc1ccccc1)N1C(=O)/C(=C\c2cccc([N+](=O)[O-])c2)SC1=S (stereo unspecified) [Thiazolidinone core, 26]
- Kd [1]: > 33 µM
- Kd [2]: > 33 µM

SMILES: NS(=O)(=O)c1ccc(N2N=C(C(F)(F)F)/C(=C/c3ccc(-c4ccc5c(c4)C(=O)NC5=O)o3)C2=O)cc1 [Pyrazol analog, 2]
- Kd [2]: 1.5 µM

SMILES: O=C(O)C(Cc1ccc(O)cc1)N1C(=O)/C(=C\c2cccc(Br)c2)SC1=S (stereo unspecified) [Thiazolidinone core, 17]
- Kd [1]: > 33 µM
- Kd [2]: > 11.2 µM

SMILES: O=C1Nc2ccccc2/C1=C1/SC(=S)N(C(Cc2ccccc2)C(=O)O)C1=O (stereo unspecified) [Thiazolidinone core, 8]
- IC50 [4]: 93 µM
- Kd [2]: 10.7 µM

SMILES: COc1cccc(/C=C2/SC(=S)N(C(Cc3ccccc3)C(=O)O)C2=O)c1 (stereo unspecified) [Thiazolidinone core, 28]
- Kd [1]: > 33 µM
- Kd [2]: > 33 µM

SMILES: CCOC(=O)c1cc(-c2ccc(/C=C3\C(=O)N(c4ccc(S(N)(=O)=O)cc4)N=C3C(F)(F)F)o2)ccc1Cl [Pyrazol analog, 4]
- Kd [2]: 6.7 µM

SMILES: O=C(O)C(Cc1ccccc1)N1C(=O)/C(=C\c2cccc(Br)c2)SC1=S (stereo unspecified) [Thiazolidinone core, 6]
- IC50 [3]: 65 µM
- IC50 [4]: 1.6 µM
- Kd [1]: 12 µM
- Kd [2]: 9.4 µM

SMILES: O=C(O)C(Cc1ccccc1)N1C(=O)/C(=C/c2cccc(Br)c2)SC1=S (stereo unspecified) [Thiazolidinone core, 15]
- Kd [1]: > 33 µM
- Kd [2]: > 33 µM

SMILES: O=C(O)C(Cc1ccccc1)N1C(=O)/C(=C\c2ccccc2Br)SC1=S (stereo unspecified) [Thiazolidinone core, 25]
- Kd [1]: > 33 µM
- Kd [2]: > 33 µM

SMILES: O=C1c2cccc3c([N+](=O)[O-])ccc(c23)C(=O)N1Cc1cccnc1 [Pyridin analog, 11]
- Kd [1]: 8 µM

SMILES: O=C1Nc2ccc([N+](=O)[O-])cc2/C1=C1/SC(=S)N(C(Cc2ccccc2)C(=O)O)C1=O (stereo unspecified) [Thiazolidinone core, 30]
- IC50 [3]: > 100 µM
- Kd [1]: 10 µM
- Kd [2]: 5.7 µM

SMILES: O=C1N/C(=N\S(=O)(=O)c2ccccc2)S/C1=C1/C(=O)Nc2ccc([N+](=O)[O-])cc21 [Thiazolidinone core, 5]
- IC50 [4]: 17 µM
- Kd [2]: 4 µM

SMILES: O=C(O)[C@H](Cc1ccccc1)N1C(=O)/C(=C/c2ccc(Br)cc2)SC1=S [Thiazolidinone core, 24]
- IC50 [3]: 35 µM
- Kd [1]: 9.3 µM
- Kd [2]: > 33 µM

SMILES: Cc1cccc(/C=C2/SC(=S)N(C(Cc3ccccc3)C(=O)O)C2=O)c1 (stereo unspecified) [Thiazolidinone core, 27]
- Kd [1]: > 33 µM
- Kd [2]: > 33 µM

SMILES: O=C1Nc2ccccc2/C1=C1/SC(=S)N(C(Cc2ccc(O)cc2)C(=O)O)C1=O (stereo unspecified) [Thiazolidinone core, 20]
- Kd [1]: > 33 µM
- Kd [2]: 14.1 µM

SMILES: CCOC(=O)c1ccc(-c2ccc(/C=C3\C(=O)N(c4ccc(S(N)(=O)=O)cc4)N=C3C(F)(F)F)o2)cc1 [Pyrazol analog, 3]
- Kd [2]: 3.1 µM

SMILES: CC(C(=O)O)N1C(=O)/C(=C2/C(=O)Nc3ccccc32)SC1=S (stereo unspecified) [Thiazolidinone core, 19]
- Kd [1]: > 330 µM
- Kd [2]: > 33 µM

SMILES: CC(C(=O)O)N1C(=O)/C(=C\c2cccc(Br)c2)SC1=S (stereo unspecified) [Thiazolidinone core, 16]
- Kd [1]: > 330 µM
- Kd [2]: > 33 µM

SMILES: O=c1/c(=C/c2cc([N+](=O)[O-])c(O)cc2Cl)sc2nc3ccccc3n12 [Thiazolidinone core, 10]
- IC50 [3]: 0.028 µM
- IC50 [4]: 4 µM
- Kd [1]: 5.3 µM

SMILES: O=C(O)CN1C(=O)/C(=C2/C(=O)Nc3ccccc32)SC1=S [Thiazolidinone core, 18]
- Kd [1]: > 330 µM
- Kd [2]: > 33 µM

SMILES: O=C(O)C(Cc1ccccc1)N1C(=O)/C(=C/c2cccc(Cl)c2)SC1=S (stereo unspecified) [Thiazolidinone core, 21]
- IC50 [3]: 49 µM
- Kd [1]: 16 µM
- Kd [2]: 21.3 µM

SMILES: O=C(O)C(Cc1ccccc1)N1C(=O)/C(=C/c2cccc(I)c2)SC1=S (stereo unspecified) [Thiazolidinone core, 22]
- IC50 [3]: 41 µM
- Kd [1]: 6 µM
- Kd [2]: 6.3 µM
